From patent US20060128729A1, “Novel bicyclic heterocyclic compounds, process for their preparation and compositions containing them” (priority 2004, published 2006) come the findings set out here.

Structures can show the parent of a compound that is named as a salt. Where two headings read alike, the source gives them in different places.

The test system of data set [1] is VCAM-1 (vascular cell adhesion molecule-1). Nature of the data set: VCAM-1 ELISA on cell layers of stimulated human aortic endothelial cells. The class given is cell-based. The conditions noted are these: HAECs treated with TNFα (0.05 ng/ml) or glycated human serum albumin (300 μg/ml) for 18-24 h, read-out: IC50 in VCAM-1 enzyme-linked immunosorbent assay. The method, then: (§1) For inflammation assays, human aortic endothelial cells (HAECS) in 96 well plates were washed once with treatment medium (basal medium containing 1% FBS). Cells were treated with an inflammatory agent such as TNFα (0.05 ng/ml) or glycated human serum albumin (US Biologicals) as source of advanced glycation end products (AGEs) (300 μg/ml) for 18-24 h in the presence or absence of specified amount of compound. Cell supernatants were collected and used for the estimation of MCP-1 (monocyte chemoattractant protein 1) or IL-6 (interleukin-6) by ELISA. Cell layers were washed and used for determining the levels of vascular cell adhesion molecule-1 (VCAM-1).
The cells were fixed cells with 100% methanol for 10 min at room temperature. The methanol was removed and the plate was air-dried. 100 ul of 1:1000 diluted primary antibody (polyclonal goat anti-human VCAM-1—R&D Systems #BBA19) was then added and incubated for 2 h at 37 C. The cells were washed with PBS and 100 ul of 1:5000 dilution of secondary antibody (rabbit anti-goat IgG-HRP—Zymed #81-1620) was added and incubated for 1 h at room temperature. Cells were washed and 100 ul of substrate solution (R&D Systems# DY999) was added and incubated for 20 min in the dark at room temp. 50 μl of stop solution (2N sulfuric acid) was added to the wells and absorbency at 450 nm was noted.

Data set [2] deals with MCP-1 (monocyte chemoattractant protein 1). Nature of the data set: MCP-1 ELISA on supernatants of stimulated human aortic endothelial cells. The data set is classed as cell-based. The conditions noted are these: HAECs treated with TNFα (0.05 ng/ml) or glycated human serum albumin (300 μg/ml) for 18-24 h, read-out: IC50 in MCP-1 enzyme-linked immunosorbent assay. The method, then: as §1
MCP-1 ELISA was carried out using Quantikine Human MCP-1 kit as described by the manufacturer (R&D Systems, Inc.). Mouse anti-human MCP-1 was used as the capture antibody and HRP (horse radish peroxidase)-conjugated goat anti-human MCP-1 antibody was used as detection antibody. Culture medium was incubated with the capture antibody (in 96-well plate) for 2 h at room temperature. Wells were washed three times with wash buffer (0.05% Tween-20 in PBS) followed by incubation with detection antibody for 2 h at room temperature. Color development was read at […] in a microplate reader.
For orientation: An ELISA detects its analyte on a solid surface through an enzyme-linked reagent.

The test system of data set [3] is human aortic smooth muscle cells. The experiment in a line: Smooth muscle cell proliferation assay (radiolabeled thymidine incorporation or CellTiter AQ). The data set is classed as cell-based. The conditions noted are these: human aortic SMC; for IC50: 24 h post treatment in serum-containing growth medium, read-out: Activity: concentration giving 50% inhibition of smooth muscle cell proliferation; for inhibition at 1 µM: 24 h post treatment. The method, then:
Primary cultures of human aortic smooth muscle cells were obtained from Clonetics. SMC were initially grown in T-75 flasks prior to seeding in 96 well plates. The 96-well plates were seeded with 4000 cells/well. The following day cells were washed with serum free medium and left in serum free media for 24 hours for serum starvation. The next day cells received growth medium containing serum with or without compound. 24 h post treatment cell proliferation was assayed either assessing the incorporation of radiolabeled thymidine to DNA or using a non-radioactive cell proliferation kit from Promega (CellTiter AQ).

With `COc1ccc(Nc2nc(-c3ccc(F)cc3)nc3c2cnn3-c2ccccc2)cc1F` [E 80, (3-fluoro-4-methoxy phenyl)-[6-(4-fluoro-phenyl)-1-phenyl-1H-pyrazolo[3,4-d]-pyrimidin-4yl]amine hydrochloride], the IC50 came out at 11100 nM in data set [1] (Homo sapiens, Endothelial cell); 5400 nM in data set [2] (Homo sapiens, Endothelial cell); 460 nM in data set [3].
For `COc1ccc(Nc2nc(-c3ccc(F)cc3)cc3c2c(C)nn3C)cc1F` [E 73, (3-fluoro-4-methoxy-phenyl)-[6-(4-fluoro-phenyl)-1,3-dimethyl-1H-pyrazolo[4,3-c]pyridin-4-yl]-amine hydrochloride], in that order: 13700 nM, 4100 nM and 900 nM.
As to `Cc1nn(C)c2c(Nc3ccc(S(N)(=O)=O)cc3)nc(-c3ccccc3)nc12` [E 44, 4-(1,3-dimethyl-5-phenyl-1H-pyrazolo[4,3-d]pyrimidin-7-ylamino)-benzenesulfonamide hydrochloride], the IC50 in data set [3] was determined as 2500 nM.
`Cc1nn(C)c2c(Nc3ccc(OC(F)(F)F)cc3)nc(-c3ccccc3)nc12.Cl` [E 38, (1,3-dimethyl-5-phenyl-1H-pyrazolo[4,3-d]pyrimidin-7-yl)-(4-trifluoromethoxy-phenyl)-amine hydrochloride]: the melting point fell in the range of 174 to 176 °C. For the same compound, in data set [3], the IC50 is 230 nM.
For `Cc1nn(C)c2c(Nc3ccc4c(c3)OCO4)nc(-c3cccs3)nc12` [E 33, benzo[1,3]dioxol-5-yl-(1,3-dimethyl-5-thiophen-2-yl-1H-pyrazolo[4,3-d]pyrimidin-7-yl)-amine hydrochloride], the IC50 in data set [3] came out at 540 nM.
Take `COc1ccc(Nc2nc(-c3cccs3)nc3c(C)nn(C)c23)cc1F.Cl` [E 30, (1,3-dimethyl-5-thiophen-2-yl-1H-pyrazolo[4,3-d]pyrimidin-7-yl)-(3-fluoro-4-methoxy-phenyl)-amine hydrochloride]: the melting point was in the range of 236 to 238 °C. Also, the IC50 in data set [3] amounted to 1450 nM.
Take `COc1ccc(Nc2nc(-c3ccc(F)cc3)nc3c(C)nn(C)c23)cc1Cl.Cl` [E 17, (3-chloro-4-methoxy-phenyl)-[5-(4-fluoro-phenyl)-1,3-dimethyl-1H-pyrazolo[4,3-d]pyrimidin-7-yl]-amine hydrochloride]: the melting point is greater than 240 °C. This compound also showed an inhibition at 1 µM in data set [3] of 100%.
On to `Cc1nn(C)c2cc(-c3ccc(F)cc3)nc(Nc3ccc(S(C)(=O)=O)cc3)c12` [E 100, [6-(4-fluoro-phenyl)-1,3-dimethyl-1H-pyrazolo[4,3-c]pyridin-4-yl]-(4-methanesulfonyl-phenyl)-amine], for which the IC50 in data set [2] (Homo sapiens, Endothelial cell) stood at 480 nM.
In turn, `CCCc1nn(C)c2c(Nc3ccc(OC(F)(F)F)cc3)nc(-c3ccc(F)cc3)nc12.Cl` [E 37, [5-(4-fluoro-phenyl)-1-methyl-3-propyl-1H-pyrazolo[4,3-d]pyrimidin-7-yl]-(4-trifluoromethoxy-phenyl)-amine hydrochloride] showed a melting point of 230 to 232 °C. For the same compound, in data set [3], the IC50 was 500 nM.
`CNC(=O)c1cccc(Nc2nc(-c3ccc(F)cc3)nc3c(C)nn(C)c23)c1.Cl` [E 50, 3-[5-(4-fluoro-phenyl)-1,3-dimethyl-1H-pyrazolo[4,3-d]pyrimidin-7-ylamino]-N-methyl-benzamide hydrochloride]: the melting point was in the range of 272 to 274 °C. The IC50 in data set [1] (Homo sapiens, Endothelial cell) came out at 1680 nM. For the same compound, the IC50 in data set [2] (Homo sapiens, Endothelial cell) came to 420 nM.
`Cc1nn(C)c2c(Nc3ccc(S(C)(=O)=O)cc3)nc(-c3ccc(F)cc3)nc12` [E 96, [5-(4-fluoro-phenyl)-1,3-dimethyl-1H-pyrazolo[4,3-d]pyrimidin-7-yl]-(4-methanesulfonyl-phenyl)-amine] yielded a melting point of 216 to 218 °C. The IC50 in data set [3] stood at 1370 nM.
Turning to `COc1ccc(Nc2nc(-c3ccccc3)nc3c(C)nn(C)c23)cc1F` [E 14, (1,3-dimethyl-5-phenyl-1H-pyrazolo[4,3-d]pyrimidin-7-yl)-(3-fluoro-4-methoxy-phenyl)-amine hydrochloride], the IC50 in data set [2] (Homo sapiens, Endothelial cell) amounted to 4000 nM; in data set [3], 430 nM.
The compound `Cc1nn(C)c2c(Nc3cccc(C(N)=O)c3)nc(-c3ccc(F)cc3)nc12.Cl` [E 49, 3-[5-(4-fluoro-phenyl)-1,3-dimethyl-1H-pyrazolo[4,3-d]pyrimidin-7-ylamino]-benzamide hydrochloride] showed a melting point of 258 to 260 °C. Moreover, the IC50 in data set [1] (Homo sapiens, Endothelial cell) turned out to be 610 nM. Further, the IC50 in data set [2] (Homo sapiens, Endothelial cell) came out at 340 nM.
Consider `COc1ccc(Nc2nc(-c3ccc(F)cc3)nc3c(C)nn(C)c23)cc1F.Cl` [E 16, (3-fluoro-4-methoxy-phenyl)-[5-(4-fluoro-phenyl)-1,3-dimethyl-1H-pyrazolo[4,3-d]pyrimidin-7-yl]-amine hydrochloride], for which the melting point amounted to 262 °C. At 1 µM the inhibition in data set [3] was 100%.
`Cc1nn(C)c2c(Nc3ccc4c(c3)OCO4)nc(-c3ccc(F)cc3)nc12.Cl` [E 19, benzo[1,3]dioxol-5-yl-[5-(4-fluoro-phenyl)-1,3-dimethyl-1H-pyrazolo[4,3-d]pyrimidin-7-yl]-amine hydrochloride] returned a melting point of 230 to 232 °C. Further, in data set [3], the IC50 is 450 nM.
Turning to `COc1ccc(Nc2nc(-c3cccs3)nc3c(C)nn(C)c23)cc1Cl.Cl` [E 32, (3-chloro-4-methoxy-phenyl)-(1,3-dimethyl-5-thiophen-2-yl-1H-pyrazolo[4,3-d]pyrimidin-7-yl)-amine hydrochloride], the melting point is greater than 240 °C. In addition, the IC50 in data set [3] came to 940 nM.
For `Cc1nn(C)c2c(Nc3ccc(S(=O)(=O)N(C)C)cc3)nc(-c3ccc(F)cc3)nc12.Cl` [E 43, 4-[5-(4-fluoro-phenyl)-1,3-dimethyl-1H-pyrazolo[4,3-d]pyrimidin-7-ylamino]-N,N-dimethyl-benzenesulfonamide hydrochloride], in that order: 254 to 256 °C and 930 nM.
For `CCCc1nn(C)c2c(Nc3ccc(OC)c(F)c3)nc(-c3ccc(F)cc3)nc12` [E 86, (3-fluoro-4-methoxy-phenyl)-[5-(4-fluoro-phenyl)-1-methyl-3-propyl-1H-pyrazolo[4,3-d]pyrimidin-7-yl]-amine], the figures for the IC50 in data set [1] and in data set [2] were 12700 nM and 9000 nM, respectively.
`Cc1nn(C)c2c(Nc3ccc(C(F)(F)F)cc3)nc(-c3ccc(F)cc3)nc12.Cl` [E 39, [5-(4-fluoro-phenyl)-1,3-dimethyl-1H-pyrazolo[4,3-d]pyrimidin-7-yl]-(4-trifluoromethyl-phenyl)-amine hydrochloride] registered a melting point of 250 to 252 °C. Further, the IC50 in data set [3] amounted to 330 nM.
As for `CCCc1nn(C)c2c(-c3ccc(O)c(Cl)c3)nc(-c3ccc(F)cc3)nc12` [E 55, 2-chloro-4-[5-(4-fluoro-phenyl)-1-methyl-3-propyl-1H-pyrazolo[4,3-d]pyrimidin-7-yl]-phenol], the melting point lay within 182 to 184 °C.
`CNS(=O)(=O)c1ccc(Nc2nc(-c3ccc(F)cc3)cc3c2c(C)nn3C)cc1.Cl` returned a melting point of 293 to 295 °C.
On the same count and under the same terms, the same measure for `CCCc1nn(C)c2c(Nc3ccc4c(c3)OCO4)nc(-c3cccs3)nc12.Cl`: 246 to 250 °C; for `Cc1nn(C)c2cc(-c3ccc(F)cc3)nc(-c3ccc(OC(F)(F)F)cc3)c12` [E 94, 6-(4-fluoro-phenyl)-1,3-dimethyl-4-(4-trifluoromethoxy-phenyl)-1H-pyrazolo[4,3-c]pyridine]: 92 to 94 °C; for `CCCc1nn(C)c2c(Nc3ccc(F)cc3)nc(-c3ccc(F)cc3)nc12.Cl`: 161 to 164 °C.
In the case of `COc1ccc(Nc2nc(-c3ccccc3)nc3c(C)nn(C)c23)cc1Cl` [E 13, (3-chloro-4-methoxy-phenyl)-(1,3-dimethyl-5-phenyl-1H-pyrazolo[4,3-d]pyrimidin-7-yl)-amine hydrochloride], the IC50 in data set [2] (Homo sapiens, Endothelial cell) is 1500 nM; in data set [3] it was 380 nM.

One may read the melting point as the temperature of the solid-liquid transition. Broadly, the inhibition is the share of the control response that was lost under treatment. Low values mean a weak effect, high ones a strong effect.
